{
  "source": "patent US20240115654A1",
  "about": "“INTRAVENOUS ADMINISTRATION OF ENGINEERED ANTIMICROBIAL AMPHIPHILIC PEPTIDES” (priority 2021, published 2024)",
  "details": "30 min IV infusion",
  "procedure": "Animals will be obtained from the Test Facility's colony of adult male cynomolgous monkeys (Macaca fascicularis) of Chinese origin. Animals will be weighed prior to dosing.\nAnimals will be fasted a minimum of 2 hours prior to procedures requiring the administration of ketamine anesthesia. The diet will also be supplemented with other nutrients by feeding items such as raisins or fresh fruits that are presented to the animal as part of an environmental enrichment program. Offering items known to cause diarrhea will be avoided.\nIntravenous administration will be via 30 minute infusion into a temporary percutaneous catheter placed into a saphenous vein. Prior to and following dose administration, the catheter will be flushed with 0.5 mL saline prior to removal. All dosing syringes will be weighed prior to and following dosing.\nSerial blood samples will be collected via femoral vein (cephalic or saphenous, as necessary). Approximately 1 mL blood samples will be collected into K2EDTA tubes.\nBlood samples will be collected into K2EDTA tubes and stored on wet ice. Whole blood will be processed to plasma by centrifugation (2400-2700 rpm at 5° C.) within 30 minutes of collection. Plasma samples will be split into 2 equal aliquots and stored at −80° C. until analysis.\nPrior to extraction, a known concentration of a mass-adjusted internal standard (IS) will be added to assess recovery and allow for quantitation. Purified samples will be further subjected to high-performance liquid chromatography (HPLC) using C18 300 or 130 angstrom columns prior to MS/MS analysis. Multiple charge states will be observed by MS, so MS/MS will be employed to enable multiple reaction monitoring (MRM) analyses to determine the most MRM transitions with the highest signal-to-noise gain. Compound plasma concentrations will be determined by comparing to and compensating with co-purified IS peak intensity and validated calibrated standard curves.\nToxicokinetic parameters will be calculated using non-compartmental methods as implemented in the Phoenix® WinNonlin® ver. 6.3 comprehensive TK/PK analysis software program (Pharsight Corporation; Mountain View, CA) using an IV infusion model. Toxicokinetic analysis will be conducted using a 30-minute intravenous infusion time. Therefore, 30 minutes will be added to each sample time point postdose to obtain nominal time for TK analysis. Nominal times and dosage levels will be used for all calculations. Values below the lower limit of quantitation (BLQ) will be assigned a value of zero for the toxicokinetic calculations. Microsoft® Excel® 2013 will be used for receipt of bioanalytical data, minor formatting, including setting BLQ values to “0”, transfer into WinNonlin® for TK analysis, and calculation of the mean when an approximated value will be excluded. All plasma concentration data from all animals will be included in the analysis. Graphical presentations will be performed using Prism® for Macintosh ver. 7.0a (GraphPad, Inc.; La Jolla, CA).",
  "note": "Several values for one entry are separate records, joined by “and”; a condition that tells them apart may be missing. Equal values may be shown once. Read-outs that look alike come from different tables or passages of the source. Peptide text beside a SMILES is read from it.",
  "data": [
    {"smiles": "CC(C)[C@H](NC(=O)[C@H](Cc1c[nH]c2ccccc12)NC(=O)[C@H](CCCNC(=N)N)NC(=O)[C@H](CCCNC(=N)N)NC(=O)[C@@H](NC(=O)[C@@H](NC(=O)[C@H](CCCNC(=N)N)NC(=O)[C@@H](NC(=O)[C@@H](NC(=O)[C@H](CCCNC(=N)N)NC(=O)[C@H](CCCNC(=N)N)NC(=O)[C@H](Cc1c[nH]c2ccccc12)NC(=O)[C@@H](NC(=O)[C@H](CCCNC(=N)N)NC(=O)[C@H](CCCNC(=N)N)NC(=O)[C@@H](NC(=O)[C@H](CCCNC(=N)N)NC(=O)[C@H](CCCNC(=N)N)NC(=O)[C@@H](NC(=O)[C@H](Cc1c[nH]c2ccccc12)NC(=O)[C@H](CCCNC(=N)N)NC(=O)[C@@H](N)CCCNC(=N)N)C(C)C)C(C)C)C(C)C)C(C)C)C(C)C)C(C)C)C(C)C)C(=O)N[C@@H](CCCNC(=N)N)C(=O)N[C@@H](CCCNC(=N)N)C(N)=O", "note": "[SEQ ID NO: 1] (H-RRWVRRVRRVWRRVVRVVRRWVRR-NH2)", "values": [
      {"measurement": "AUCinf Extrapolated", "setting": "1 mg/kg, Mean of group", "value": 10.0, "unit": "%"},
      {"measurement": "CL", "setting": "1 mg/kg, Mean of group", "value": 18.5, "unit": "mL/min/kg"},
      {"measurement": "Dose Normalized AUClast", "setting": "1 mg/kg, Mean of group", "value": 983},
      {"measurement": "Dose Normalized Cmax", "setting": "1 mg/kg, Mean of group", "value": 1710},
      {"measurement": "Vss", "setting": "1 mg/kg, Mean of group", "value": 1.38, "unit": "L/kg"},
      {"measurement": "CL", "setting": "1 mg/kg, individual monkeys", "value": 9.65, "unit": "mL/min/kg"},
      {"measurement": "Dose Normalized AUClast", "setting": "1 mg/kg, individual monkeys", "value": "740 and 1610 and 595"},
      {"measurement": "Dose Normalized Cmax", "setting": "1 mg/kg, individual monkeys", "value": "1460 and 2660 and 997"},
      {"measurement": "AUCinf Extrapolated", "setting": "3 mg/kg, Mean of group", "value": 1.5, "unit": "%"},
      {"measurement": "CL", "setting": "3 mg/kg, Mean of group", "value": 7.18, "unit": "mL/min/kg"},
      {"measurement": "Dose Normalized AUClast", "setting": "3 mg/kg, Mean of group", "value": 2530},
      {"measurement": "Dose Normalized Cmax", "setting": "3 mg/kg, Mean of group", "value": 3450},
      {"measurement": "T1/2", "setting": "3 mg/kg, Mean of group", "value": 5.2, "unit": "h"},
      {"measurement": "Tmax", "setting": "3 mg/kg, Mean of group", "value": 6.6, "unit": "min"},
      {"measurement": "AUCinf Extrapolated", "setting": "3 mg/kg, individual monkeys", "value": "1.2% and 2.3% and 1.1%"},
      {"measurement": "Dose Normalized AUClast", "setting": "3 mg/kg, individual monkeys", "value": "2220 and 3660 and 1710"},
      {"measurement": "Dose Normalized Cmax", "setting": "3 mg/kg, individual monkeys", "value": "2280 and 5170 and 2900"},
      {"measurement": "T1/2", "setting": "3 mg/kg, individual monkeys", "value": 5, "unit": "h"},
      {"measurement": "AUCinf Extrapolated", "setting": "10 mg/kg, Mean of group", "value": 1.3, "unit": "%"},
      {"measurement": "CL", "setting": "10 mg/kg, Mean of group", "value": 6.32, "unit": "mL/min/kg"},
      {"measurement": "Dose Normalized AUClast", "setting": "10 mg/kg, Mean of group", "value": 5030},
      {"measurement": "Dose Normalized Cmax", "setting": "10 mg/kg, Mean of group", "value": 3820},
      {"measurement": "T1/2", "setting": "10 mg/kg, Mean of group", "value": 4.6, "unit": "h"},
      {"measurement": "AUCinf Extrapolated", "setting": "10 mg/kg, individual monkeys", "value": "1.0% and 1.8% and 0.99%"},
      {"measurement": "CL", "setting": "10 mg/kg, individual monkeys", "value": 7.5, "unit": "mL/min/kg"},
      {"measurement": "Dose Normalized Cmax", "setting": "10 mg/kg, individual monkeys", "value": "2600 and 2430 and 6430"},
      {"measurement": "T1/2", "setting": "10 mg/kg, individual monkeys", "value": "4.3 h and 4.9 h and 4.6 h"}
    ]}
  ]
}
